{
  "source": "paper PMC10492782",
  "about": "“Exploiting the aggregation propensity of beta-lactamases to design inhibitors that induce enzyme misfolding” (Nature Communications, 2023)",
  "key": {"E. coli TEM-16": {"system": "E. coli TEM-16", "assay": "VITEK 2 AST antimicrobial susceptibility testing", "assay_type": "cell-based, Escherichia coli", "description": "(§1) Beta-lactamase clinical samples were collected from University Hospitals Leuven and tested for ESBL production using the disk diffusion method. The beta-lactamase reference isolates were purchased from International Health Management Associates (IHMA). Bacterial strains were cultivated in Mueller–Hinton Broth (MHB, Difco) at 37 °C. Whenever required, growth media were supplemented with appropriate antibiotics to the medium or plates (kanamycin 30 µg/mL, L-arabinose 0.5 mg/mL, and IPTG […]). Escherichia coli BL21 (ThermoFisher Scientific, Belgium) was used for cloning and plasmid amplification. For the selection of antibiotic resistant colonies, E. coli carrying plasmids was grown in LB agar plates supplemented with the relevant antibiotic. Bacterial CFU counting was done on blood agar plates (BD Biosciences, Belgium) or MHA agar plates. Species identification and antibiograms for all clinical isolates were performed using MALDI-Tof and VITEK® 2 automated system (BioMérieux, France).\n(§2) Khodaparast et al Supplementary data\n(§3) study. […] Abbreviations: S,\n(§4) susceptible; I, intermediate; R, resistant."}, "E. coli NDM5b": {"system": "E. coli NDM5b", "assay": "VITEK 2 AST antimicrobial susceptibility testing", "assay_type": "cell-based, Escherichia coli", "description": "as §1, §2, §3, §4"}, "E. coli NDM5a": {"system": "E. coli NDM5a", "assay": "VITEK 2 AST antimicrobial susceptibility testing", "assay_type": "cell-based, Escherichia coli", "description": "as §1, §2, §3, §4"}, "E. coli TEM-104": {"system": "E. coli TEM-104", "assay": "VITEK 2 AST antimicrobial susceptibility testing", "assay_type": "cell-based, Escherichia coli", "description": "as §1, §2, §3, §4"}, "E. coli TEM-148": {"system": "E. coli TEM-148", "assay": "VITEK 2 AST antimicrobial susceptibility testing", "assay_type": "cell-based, Escherichia coli", "description": "as §1, §2, §3, §4"}, "E. coli SHV1 (APHA)": {"system": "E. coli SHV1 (APHA)", "assay": "VITEK 2 AST antimicrobial susceptibility testing", "assay_type": "cell-based, Escherichia coli", "description": "as §1, §2, §3, §4"}, "E. coli TEM-206": {"system": "E. coli TEM-206", "assay": "VITEK 2 AST antimicrobial susceptibility testing", "assay_type": "cell-based, Escherichia coli", "conditions": "E. coli TEM-206", "description": "as §1, §2, §3, §4"}, "[1]": {"system": "uro-pathogenic E. coli strain (UPEC strain blaTEM-1)", "assay": "MIC of ampicillin with or without 32 µg/mL TEM3.2 or tazobactam", "assay_type": "cell-based, Escherichia coli", "conditions": "Escherichia coli; no additive", "description": "We also performed a tolerability study using a dose escalation method by administering the peptide at 2, 5, 10, 15, and 20 mg/kg via different parenteral routes: intravenous (IV), intraperitoneal (IP), and subcutaneous (SC) in female C57BL/6JAX mice, aged 8–10 weeks (Suppl Table 4). […] Vehicle alone (0.9% NaCl) was also administered (IV). After 24 h the animals were sacrificed and the bacterial load in the bladder, kidney, and ureter was quantified by determining the number of colony-forming units (CFU) per mL of tissue extract (Fig. 7E–G).\nDetermination of MIC values was performed using the broth microdilution method according to the EUCAST guideline, which was performed in 96-well polystyrene flat-bottom microtiter plates (BD Biosciences). Briefly, a single colony was inoculated into 5 mL Difco™ Mueller–Hinton Broth (BD Biosciences Ref 275730) and grown to the end-exponential growth phase in a shaking incubator at 37 °C. Cultures were subsequently diluted to a MacFarland (0.5 optical density) to reach 10^6 CFU/mL in fresh MHB medium. 50 µl of different concentrations of peptides ranging from 128 to 2 µg/mL were serially diluted to the sterile 96-well plate in MHB. 50 µL of the diluted bacteria in MHB were next pipetted into 96-well plates to reach the final volume of 100 µL. The bacteria grown with the maximum concentration of carrier and medium were considered positive and negative controls, respectively. The plates were statically incubated overnight at 37 °C to allow bacterial growth. OD was measured at 590 nm using a multipurpose ultraviolet–visible plate reader, and the absorbance of the bacterial growth was measured using an absorbance reader."}, "E. coli TEM-30": {"system": "E. coli TEM-30", "assay_type": "cell-based, Escherichia coli", "description": "as §1, §2, §3, §4"}, "TEM-1 [2]": {"system": "TEM-1", "conditions": "ampicillin as substrate; cited from earlier work"}, "OXA-48": {"system": "OXA-48", "conditions": "ampicillin as substrate; cited from earlier work", "source_text": "(§5) Abbreviations: S, susceptible; I, intermediate; R, resistant."}, "VIM-1": {"system": "VIM-1", "conditions": "ampicillin as substrate; cited from earlier work", "source_text": "as §5"}, "NDM-5": {"system": "NDM-5", "conditions": "ampicillin as substrate; cited from earlier work"}, "TEM-1 [3]": {"molecular_target": "TEM-1 (Escherichia coli, UniProt P62593)", "sequence (P62593 24-286 limits assumed)": "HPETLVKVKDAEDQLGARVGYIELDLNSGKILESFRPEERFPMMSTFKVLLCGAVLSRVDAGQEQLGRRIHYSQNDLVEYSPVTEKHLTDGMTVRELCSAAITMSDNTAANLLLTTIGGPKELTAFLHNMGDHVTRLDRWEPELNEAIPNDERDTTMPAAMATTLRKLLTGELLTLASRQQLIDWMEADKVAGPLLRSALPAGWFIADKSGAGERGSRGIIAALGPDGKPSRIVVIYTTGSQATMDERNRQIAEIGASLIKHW", "assay_type": "biochemical, E. coli", "set-up": "His-tag (N); TEV cleavage site (N); made in house; host or cells: E. coli BL21 (DE3)", "conditions": "static light scattering during temperature ramp, inhibitor titration", "from_the_text": "Then, we performed a thermal denaturation whilst simultaneously monitoring the intrinsic fluorescence as a measure of the folding status of the molecule (Fig. 1D and Supplementary Fig. 2D) and the static light scattering as a measure of aggregation (Fig. 1E and Supplementary Fig. 2E).\nD Heat denaturation of TEM-1 monitored by intrinsic fluorescence plotted as the BaryCentric Mean (BCM) of the fluorescence emission spectrum in the presence (red) and absence (blue) of tazobactam. […] E Temperature-dependent evolution of the Right-Angle Light Scattering (RALS) intensity measured simultaneously with the data in D to monitor protein aggregation. […] F Same data as in E, but showing a dose-titration of the beta-lactamase inhibitor tazobactam."}, "E. coli strain UZ_TEM104": {"system": "E. coli strain UZ_TEM104", "assay": "microbe, parasite or virus in culture", "assay_type": "cell-based, Escherichia coli", "conditions": "Escherichia coli, read-out: MIC penicillin"}, "E. coli UZ_TEM104": {"system": "E. coli UZ_TEM104", "assay": "FACS with pFTAA (aggregation) and propidium iodide (cell death)", "assay_type": "cell-based, Escherichia coli", "conditions": "4 h; penicillin G 400 μg/mL and/or TEM3.2 50 μg/mL", "method": "Fig. 6 Uptake and inclusion body formation upon peptide treatment. Fluorescence-activated cell-sorting (FACS) (A) of E. coli strain UZ_TEM104 mixed 50–50% with the same strain after heat-inactivation. The cells were stained with pFTAA to monitor aggregation and propidium iodide (PI) to monitor cell permeabilization associated with cell death. 10^6 cells were analyzed for the plot. […] B Similar FACS analysis as in A, but with a sample of live bacteria only. […] Note: the horizontal and vertical lines correspond to the gatings used to obtain the quantifications shown in the corners of each image.\nTreated bacteria were washed with PBS buffer two times. One microliter of PI (Invitrogen) was added to the bacteria and incubated for 5 min. The bacteria were counted by FACS to reach 40000 events. To correlate the activity of the peptides with cell death, the fluorescence intensity was measured in two channels using the Gallios^TM Flow Cytometer (Beckman Coulter, USA), PI: excitation 536 nm and emission 617 nm, FITC: excitation 490 nm and emission 525 nm. Heated bacteria at 90 °C for 10 min were used as PI-positive control.\nThe bacterial cultures were washed with PBS, and the number of bacteria was adjusted to 10^8–10^9 cells/mL. […] Then, cells were treated with LCO dyes (pFTAA; Amytacker^TM680 or Amytacker^TM545: final concentration of 0.5 µM; Ebba Biotech, Sweden) for at least 90 min. The absorption, emission, and excitation spectra for each dye were measured based on the standard Ebbabiotec advice (ebbabiotech.com)."}},
  "data": [
    {"smiles": "CC1(C)S[C@@H]2[C@H](NC(=O)[C@H](N)c3ccccc3)C(=O)N2[C@H]1C(=O)O", "note": "[Ampicillin]", "values": [
      {"measurement": "Interoretation", "setting": "E. coli TEM-16; E. coli TEM-16", "result": "R"},
      {"measurement": "Interpretation", "setting": "E. coli TEM-16; VITEK 2 AST card", "result": "R"},
      {"measurement": "Interoretation", "setting": "E. coli NDM5b; E. coli NDM5b", "result": "R"},
      {"measurement": "Interpretation", "setting": "E. coli NDM5b; VITEK 2 AST card", "result": "R"},
      {"measurement": "Interoretation", "setting": "E. coli NDM5a; E. coli NDM5a", "result": "R"},
      {"measurement": "Interpretation", "setting": "E. coli NDM5a; VITEK 2 AST card", "result": "R"},
      {"measurement": "Interoretation", "setting": "E. coli TEM-104; E. coli TEM-104", "result": "R"},
      {"measurement": "Interpretation", "setting": "E. coli TEM-104; VITEK 2 AST card", "result": "R"},
      {"measurement": "Interoretation", "setting": "E. coli TEM-148; E. coli TEM-148", "result": "R"},
      {"measurement": "Interpretation", "setting": "E. coli TEM-148; VITEK 2 AST card", "result": "R"},
      {"measurement": "Interoretation", "setting": "E. coli SHV1 (APHA); E. coli SHV154", "result": "R"},
      {"measurement": "Interpretation", "setting": "E. coli SHV1 (APHA); VITEK 2 AST card", "result": "R"},
      {"measurement": "Interoretation", "setting": "E. coli TEM-206", "result": "R"},
      {"measurement": "MIC", "setting": "[1]", "result": 1200, "unit": "µg/mL"},
      {"measurement": "Interoretation", "setting": "E. coli TEM-30; E. coli TEM-30", "result": "R"},
      {"measurement": "Interpretation", "setting": "E. coli TEM-30; VITEK 2 AST card", "result": "R"},
      {"measurement": "Kcat", "setting": "TEM-1 [2]", "result": 1428, "unit": "s⁻¹"},
      {"measurement": "Km", "setting": "TEM-1 [2]", "result": 50, "unit": "µM"},
      {"measurement": "Kcat", "setting": "OXA-48", "result": 955, "unit": "s⁻¹"},
      {"measurement": "Km", "setting": "OXA-48", "result": 395, "unit": "µM"},
      {"measurement": "Kcat", "setting": "VIM-1", "result": 37, "unit": "s⁻¹"},
      {"measurement": "Km", "setting": "VIM-1", "result": 917, "unit": "µM"},
      {"measurement": "Kcat", "setting": "NDM-5", "result": 1912, "unit": "s⁻¹"},
      {"measurement": "Km", "setting": "NDM-5", "result": 118, "unit": "µM"}
    ]},
    {"smiles": "NC(=O)[C@@H]1CC[C@@H]2CN1C(=O)N2OS(=O)(=O)O", "note": "[avibactam]", "values": [
      {"measurement": "effect on aggregation of TEM-1, dose-response (in words)", "setting": "TEM-1 [3]", "result": "reduce the aggregation of the enzyme in a dose-responsive manner"}
    ]},
    {"smiles": "O=C(O)[C@H]1/C(=C/CO)O[C@@H]2CC(=O)N21", "note": "[clavulanate]", "values": [
      {"measurement": "effect on aggregation of TEM-1, dose-response (in words)", "setting": "TEM-1 [3]", "result": "reduce the aggregation of the enzyme in a dose-responsive manner"}
    ]},
    {"smiles": "CC1(C)S[C@@H]2[C@H](NC(=O)Cc3ccccc3)C(=O)N2[C@H]1C(=O)O", "note": "[penicillin G, Benzylpenicillin sodium]", "values": [
      {"measurement": "MIC", "setting": "E. coli strain UZ_TEM104", "result": 1600, "unit": "µg/mL"},
      {"measurement": "shift in pFTAA and PI channels (in words)", "setting": "E. coli UZ_TEM104", "result": "no major change in either channel"}
    ]}
  ]
}
